# Measurements taken from paper PMC9721426, “Novel piperine-carboximidamide hybrids: design, synthesis, and antiproliferative activity via a multi-targeted inhibitory pathway” (Journal of Enzyme Inhibition and Medicinal Chemistry, 2022).
# Read-outs that look alike come from different tables or passages of the source.
# How the values were obtained:
# [1] = MTT cell viability assay on normal mammary epithelial cells; assay type: cell-based; conditions: human, MCF-10A mammary epithelial cells, MCF-10A normal cells, 4 days incubation
# Procedure: A human mammary gland epithelial (MCF-10A) normal cell line was used to perform the viability test. The viability of compounds VIa-k was determined using the MTT assay after 4 days of incubation with MCF-10A cells[26]^,[27].
# The MTT assay was used to assess how the synthetic compounds impacted the viability of mammary epithelial cells (MCF-10A)[26]^,[27]. Appendix A. […]
# 4.2. Biological evaluation
# 4.2.1. Cytotoxic activity using MTT Assay and evaluation of IC50
# MTT assay was carried out to study the effect of compounds on mammary epithelial cells (MCF-10A)26,27. The medium in which cells were propagated contained Dulbecco's modified Eagle's medium (DMEM)/ Ham's F-12 medium (1:1) supplemented with epidermal growth factor (20 ng/mL), hydrocortisone (500 ng/mL), insulin (10 μg/mL), 2 mM glutamine and 10% foetal calf serum. After every 2-3 days, the cells were passaged using trypsin ethylenediamine tetra acetic acid (EDTA). The cells were seeded at a density of 10^4 cells mL-1 in flat-bottomed culture plates containing 96 wells each. […]
# (§1) A single compound was designated with four wells followed by incubation of plates for 96h at 37°C. After incubation, medium was removed completely from the plates followed by addition of MTT (0.4 mg/mL in medium) to each well and subsequent incubation of plates for 3h. MTT (along with the medium) was removed and DMSO (150μL) was added to each well of the culture plates, followed by vortexing and subsequent measurement of absorbance (at 540 nm) using microplate reader. […]
# [2] = system: A-549 (epithelial cancer cell line); experiment: Antiproliferative MTT assay, A-549; assay type: cell-based; conditions: Homo sapiens, A549; A-549, MTT; read-out: Antiproliferative activity IC50 ± SEM, A-549
# Procedure: (§2) The MTT assay was performed using various cell lines in accordance with previously reported procedures[28]^,[29] to investigate the antiproliferative potential of VIa-k. Refer to Appendix A. […]
# (§3) added (in 200 μL medium to yield a final concentration of 0.1% v/v) to the wells of plates. A single compound was designated with four wells followed by incubation of […]
# as §1, with “After” for “A single compound was designated with four wells followed by incubation of plates for 96h at 37°C. After”, “reader. The data are shown as percentage inhibition of proliferation in comparison with controls containing 4.2.1.2. Assay for antiproliferative effect” for “reader.”
# (§4) The percentage cytotoxicity of compounds was calculated using the following […]
# (§5) Where ATC= Absorbance of treated cells and AC= Absorbance of control. […]
# (§6) used as positive control in the assay. […]
# [3] = system: MCF-7 (breast cancer cell line); experiment: Antiproliferative MTT assay, MCF-7; assay type: cell-based; conditions: Homo sapiens, MCF7; MCF-7, MTT; read-out: Antiproliferative activity IC50 ± SEM, MCF-7
# Procedure: as §2, §3
# as §1, with “After” for “A single compound was designated with four wells followed by incubation of plates for 96h at 37°C. After”, “reader. The data are shown as percentage inhibition of proliferation in comparison with controls containing 4.2.1.2. Assay for antiproliferative effect” for “reader.”
# as §4, §5, §6
# [4] = system: Panc-1 (pancreatic cancer cell line); experiment: Antiproliferative MTT assay, Panc-1; assay type: cell-based; conditions: Homo sapiens; Panc-1, MTT; read-out: Antiproliferative activity IC50 ± SEM, Panc-1
# Procedure: as §2, §3
# as §1, with “After” for “A single compound was designated with four wells followed by incubation of plates for 96h at 37°C. After”, “reader. The data are shown as percentage inhibition of proliferation in comparison with controls containing 4.2.1.2. Assay for antiproliferative effect” for “reader.”
# as §4, §5, §6
# [5] = system: HT-29 (colon cancer cell line); experiment: Antiproliferative MTT assay, HT-29; assay type: cell-based; conditions: Homo sapiens; HT-29, MTT; read-out: Antiproliferative activity IC50 ± SEM, HT-29
# Procedure: as §2, §3
# as §1, with “After” for “A single compound was designated with four wells followed by incubation of plates for 96h at 37°C. After”, “reader. The data are shown as percentage inhibition of proliferation in comparison with controls containing 4.2.1.2. Assay for antiproliferative effect” for “reader.”
# as §4, §5, §6
# [6] = system: four human cancer cell lines (Panc-1, MCF-7, HT-29, A-549); experiment: Antiproliferative MTT assay, average (GI50) over the four cancer cell lines; assay type: cell-based; conditions: for GI50: Homo sapiens, average of IC50 versus A-549, MCF-7, Panc-1, HT-29
# Procedure: The average (GI50) versus the four cancer cell lines was chosen for ease of manipulation.
# as §2, §3
# as §1, with “After” for “A single compound was designated with four wells followed by incubation of plates for 96h at 37°C. After”, “reader. The data are shown as percentage inhibition of proliferation in comparison with controls containing 4.2.1.2. Assay for antiproliferative effect” for “reader.”
# as §4, §5, §6
# p38α = system: p38α; parameters: method as in earlier work; conditions: cited from earlier work
# BRAF^V600E [7] = system: BRAF^V600E; parameters: method as in earlier work; conditions: cited from earlier work
# four cancer cell lines = system: four cancer cell lines; parameters: method as in PMID 35667253; conditions: read-out: GI50 against the tested four cancer cell lines; cited from earlier work
# EGFR [8] = biological target: T1, EGFR (Homo sapiens, UniProt P00533); parameters: method as in PMID 35667253; conditions: cited from earlier work
# T1 construct: cytoplasmic domain (EGFR -CD, amino acids 645–1186); His6 (N); made in house; host or cells: Sf-9 insect cells (baculovirus, pBlueBacHis2B / pFASTBacHTc)
# CDK2 = system: CDK2; parameters: method as in PMID 35667253; conditions: cited from earlier work
# c-Met = system: c-Met; parameters: method as in PMID 35667253; conditions: cited from earlier work
# EGFR [9] = biological target: T1, EGFR; experiment: EGFR-TK inhibitory assay; assay type: biochemical; conditions: EGFR-TK assay; read-out: EGFR inhibition IC50 ± SEM
# Procedure: 4.2.1.3. EGFR inhibitory assay
# EGFR-TK assay was performed to evaluate the inhibitory potency of the tested compounds against EGFR30. Baculoviral expression vectors including pBlueBacHis2B […]
# sequence comprised a sequence that encoded (His) 6. Sf-9 cells were infected for 72h for protein expression. The pellets of Sf-9 cells were solubilized in a buffer containing sodium vanadate (100 µM), aprotinin (10 µg/mL), triton (1%), HEPES buffer (50mM), ammonium molybdate (10 µM), benzamidine HCl (16 µg/mL), NaCl (10 mM), leupeptin (10 µg/mL) and pepstatin (10 µg/mL) at 0°C for 20 min at pH 7.4, followed by centrifugation for 20 min. To eliminate the non-specifically bound material, a Ni-NTA super flow packed column was used to pass through and wash the crude extract supernatant first with 10 mM and then with 100 mM imidazole. […]
# NaCl (50 mM), HEPES (20 mM), glycerol (10%) and 1 µg/mL each of aprotinin, leupeptin and pepstatin for 120 min. The purification was performed either at 4 °C or on ice. To record autophosphorylation level, EGFR kinase assay was carried out on the basis of DELFIA/Time-Resolved Fluorometry. The compounds were first dissolved in DMSO […]
# pH 7.4. Each compound (10 µL) was incubated with recombinant enzyme (10 µL, 5 ng for EGFR, 1:80 dilution in 100 mM HEPES) for 10 min at 25 °C, subsequent to the addition of 5X buffer (10 µL, containing 2 mM MnCl2, 100 µM Na3VO4, 20 mM HEPES and 1 mM DTT) and ATP-MgCl2 (20 µL, containing 0.1 mM ATP and 50 mM MgCl 2) and incubation for 1h. The negative and positive controls were included in each plate by the incuba tion of enzyme either with or without ATP -MgCl2. The liquid was removed after incubation and the plates were washed thrice using wash buffer. Europium -tagged antiphosphotyrosine antibody (75 µL, 400 ng) was added to each well followed by incubation of 1h a nd then washing of the plates using buffer. The enhancement solution was added to each well and the signal was recorded at excitation and emission […]
# The autophosphorylation percentage inhibition by compounds was calculated using the following equation: […]
# Using the curves of percentage inhibition of eight concentrations of each compound, IC 50
# BRAF^V600E [10] = biological target: T2, BRAF^V600E (Mus musculus, UniProt P28028, V585E); experiment: BRAF V600E kinase assay; assay type: biochemical; conditions: read-out: BRAF^V600E inhibition IC50 ± SEM
# T2 construct: Mouse full-length GST-tagged BRAFV600E; GST; purchased Invitrogen PV3849
# Procedure: An in vitro study was conducted to evaluate the anti-BRAF^V600E of VIc, VIf, VIg, VIi, and VIk[31]. […] An in vitro study[31] was conducted to evaluate the anti-BRAF^V600E of VIc, VIf, VIg, VIi, and Vik. See Appendix A.
# 4.2.1.4. BRAF kinase assay
# V600E mutant BRAF kinase assay was performed to investigate the activity of the most […]
# Mouse full-length GST-tagged BRAFV600E (7.5 ng, Invitrogen, PV3849) was pre-incubated with drug (1 µL) and assay dilution buffer (4 µL) for 60 min at 25 °C. In assay dilution buffer, a solution (5 µL) containing MgCl 2 (30 mM), ATP (200 µM), recombinant human full length (200 ng) […] N-terminal His-tagged MEK1 (Invitrogen) was added to start the assay, subsequent to incubation for 25 min at 25 °C. The assay was stopped using 5X protein denaturing buffer (LDS) solution (5 µL).
# To further denature the protein, heat (70° C) was applied for 5 min.
# NuPage gel plates (Invitrogen) were used to carry out electrophoresis (at 200 V). 10 µL of each reaction was loaded into the precast plates and electrophoresis was allowed to proceed. After completion of electrophoresis, the front part of the precast gel plate (holding hot ATP) was cut and afterw ards cast-off. The dried gel was developed using a […]
# that containing no inhibitor served as positive control. […]
# Human CDK2/A2 = Human CDK2/A2 (Homo sapiens, UniProt P24941); experiment: CDK2 inhibitory assay
# Procedure: Protein Kinase Assays. Human CDK2/A2 was purchased from New England Biolabs IC50 values for CDK2/A were determined according to the supplier’s instructions
# T1 sequence (P00533 669-1210): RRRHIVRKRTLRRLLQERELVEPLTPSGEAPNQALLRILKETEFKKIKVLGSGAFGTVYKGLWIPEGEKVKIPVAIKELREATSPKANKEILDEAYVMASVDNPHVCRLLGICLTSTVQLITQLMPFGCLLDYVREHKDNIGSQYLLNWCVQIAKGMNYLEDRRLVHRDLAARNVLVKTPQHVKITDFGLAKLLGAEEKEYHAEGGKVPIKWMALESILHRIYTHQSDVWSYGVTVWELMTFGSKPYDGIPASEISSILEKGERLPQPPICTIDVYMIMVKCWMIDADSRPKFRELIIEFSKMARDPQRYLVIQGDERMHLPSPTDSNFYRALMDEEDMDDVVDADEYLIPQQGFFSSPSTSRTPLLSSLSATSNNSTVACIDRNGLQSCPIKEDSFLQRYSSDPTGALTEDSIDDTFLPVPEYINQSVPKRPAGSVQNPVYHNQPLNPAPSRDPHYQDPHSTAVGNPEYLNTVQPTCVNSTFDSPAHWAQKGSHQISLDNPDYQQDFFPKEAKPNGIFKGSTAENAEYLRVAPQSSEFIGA
# T2 sequence (P28028 whole entry V585E): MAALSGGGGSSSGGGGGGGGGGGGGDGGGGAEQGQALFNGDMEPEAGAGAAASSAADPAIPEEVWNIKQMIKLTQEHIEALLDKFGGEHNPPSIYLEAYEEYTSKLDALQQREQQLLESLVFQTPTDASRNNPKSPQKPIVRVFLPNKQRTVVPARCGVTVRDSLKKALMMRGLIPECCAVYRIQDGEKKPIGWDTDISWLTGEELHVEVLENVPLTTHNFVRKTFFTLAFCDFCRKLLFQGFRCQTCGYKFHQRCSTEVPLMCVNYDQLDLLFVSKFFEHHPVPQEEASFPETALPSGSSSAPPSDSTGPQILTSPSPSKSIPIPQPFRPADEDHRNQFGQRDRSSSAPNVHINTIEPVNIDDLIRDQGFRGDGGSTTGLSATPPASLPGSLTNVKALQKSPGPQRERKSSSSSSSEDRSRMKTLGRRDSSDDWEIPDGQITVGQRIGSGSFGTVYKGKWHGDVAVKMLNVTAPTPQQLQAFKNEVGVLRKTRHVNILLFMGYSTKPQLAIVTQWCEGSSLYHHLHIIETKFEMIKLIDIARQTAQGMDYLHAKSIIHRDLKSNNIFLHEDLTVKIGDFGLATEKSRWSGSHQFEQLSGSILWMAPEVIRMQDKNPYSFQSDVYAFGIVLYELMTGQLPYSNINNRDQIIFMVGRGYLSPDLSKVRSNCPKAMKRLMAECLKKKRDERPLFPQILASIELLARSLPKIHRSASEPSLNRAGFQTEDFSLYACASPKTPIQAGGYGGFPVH
SMILES,IC50 [2],IC50 [3],IC50 [4],IC50 [5],GI50 [6],GI50 potency relative to VIi (less potent) ([6]; ratio of GI50 values),melting point,IC50 (EGFR [9]),IC50 (BRAF^V600E [10]),IC50 (Human CDK2/A2),"viability at 4 days, 50 µM [1]",IC50 (p38α),IC50 (BRAF^V600E [7]),GI50 (four cancer cell lines),IC50 (EGFR [8]),IC50 (CDK2),IC50 (c-Met)
CCCCCCn1c(-c2ccc(C(=O)O/N=C(\N)c3cccc4c3OCO4)cc2)nc(-c2ccccc2)c1-c1ccccc1 [Compound 4],,,,,,,,,,,,190 nM,330 nM,,,,
COc1cc(OC)cc(/C(N)=N/OC(=O)c2ccc3cn[nH]c3c2)c1 [Compound 5],,,,,,,,,,,,,,770 nM,89 nM,14 nM,4.1 nM

# More lines, main results first:
IC50 [2],IC50 [3],IC50 [4],IC50 [5],GI50 [6],GI50 potency relative to VIi (less potent) ([6]; ratio of GI50 values),melting point,IC50 (EGFR [9]),IC50 (BRAF^V600E [10]),IC50 (Human CDK2/A2),SMILES,"viability at 4 days, 50 µM [1]",IC50 (p38α),IC50 (BRAF^V600E [7]),GI50 (four cancer cell lines),IC50 (EGFR [8]),IC50 (CDK2),IC50 (c-Met)
50 ± 5 nM,52 ± 5 nM,57 ± 5 nM,57 ± 5 nM,54 nM,about 1.4 fold,,,,,"COc1ccc(C(N)=NOC(=O)/C=C/C=C/c2ccc3c(c2)OCO3)cc1 [VId, N'-{[(2E,4E)-5-(2H-1,3-Benzodioxol-5-yl)penta-2,4-dienoyl]oxy}-4-methoxybenzene-1-carboximidamide]",91%,,,,,,
55 ± 6 nM,57 ± 6 nM,59 ± 6 nM,58 ± 6 nM,57 nM,,157 to 160 °C,,,,"NC(=NOC(=O)/C=C/C=C/c1ccc2c(c1)OCO2)c1ccc(Cl)cc1 [VIb, N'-{[(2E,4E)-5-(2H-1,3-Benzodioxol-5-yl)penta-2,4-dienoyl]oxy}-4-chlorobenzene-1-carboximidamide]",85%,,,,,,
36 ± 4 nM,39 ± 3 nM,40 ± 4 nM,40 ± 4 nM,39 nM,,147 to 149 °C,120 ± 10 nM,72 ± 7 nM,17 ± 2 nM,"COc1ccc(C(N)=NOC(=O)/C=C/C=C/c2ccc3c(c2)OCO3)cc1OC [VIi, N'-{[(2E,4E)-5-(2H-1,3-benzodioxol-5-yl)penta-2,4-dienoyl]oxy}-3,4-dimethoxybenzene-1-carboximidamide]",89%,,,,,,
